# Test results from ChEMBL document CHEMBL6127124, “Structure-Activity Relationships and Discovery of (S)-5-(tert-Butyl)-11-(difluoromethoxy)-9-methoxy-2-oxo-1,2,5,6-tetrahydropyrido[2',1':2,3]imidazo[4,5-h]quinoline-3-carboxylic Acid (AB-161), a Novel Orally Available and Liver-Centric HBV RNA Destabilizer” (J Med Chem, 2024).
# How the values were obtained:
# Hepatitis B virus [1] = assay: Antiviral activity against HBV infected in human HepG2.2.15 cells assessed as reduction in HBsAg level incubated for 6 days with media and compound replenishment on third day by CLIA; assay type: functional, organism-based; conditions: HepG2.2.15, 144 h; for EC90: time 6 day
# [2] = Cytotoxicity in human HepG2.2.15 cells by Cell Titer-Glo assay; assay type: toxicity, cell-based, HepG2 2.2.15
# [3] = Chemical stability of compound in PBS assessed as compound remaining measured after 6 days by HPLC UV analysis; assay type: physicochemical; conditions: buffer, 144 h; time 6 day
# [4] = Ratio of total drug concentration in liver to plasma in CD-1 mouse at 10 mg/kg, po measured for 12 hrs by LC-MS/MS analysis; assay type: ADME, organism-based; conditions: liver and plasma
# [5] = AUC (0 to 24 hrs) in CD-1 mouse at 10 mg/kg, po measured for 24 hrs by LC-MS/MS analysis; assay type: ADME, organism-based; conditions: in vivo
# [6] = Ratio of total drug concentration in liver to plasma in CD-1 mouse at 10 mg/kg, po measured for 24 hrs by LC-MS/MS analysis; assay type: ADME, organism-based; conditions: for Ratio: mouse, in vivo, po, 10 mg/kg, 24 h, BLD = below limit of detection; for Kp at 24 h: CD-1, mouse, liver and plasma
# [7] = Metabolic stability in Sprague-Dawley rat liver microsomes assessed as clearance at 0.3 uM preincubated for 5 mins followed by NADPH addition measured upto 60 mins by LC-MS/MS analysis; assay type: ADME, Microsome; conditions: time < 65 min, read-out: CLH
# [8] = Ratio of total drug concentration in liver to plasma in CD-1 mouse at 0.2 mg/kg, po measured for 24 hrs by LC-MS/MS analysis; assay type: ADME, organism-based; conditions: for Ratio: mouse, in vivo, po, 0.2 mg/kg, 24 h, BLD = below limit of detection
# [9] = Ratio of total drug concentration in liver to plasma in CD-1 mouse at 0.2 mg/kg, po measured for 12 hrs by LC-MS/MS analysis; assay type: ADME, organism-based; conditions: liver and plasma
# [10] = Selectivity ratio of drug concentration in liver in CD-1 mouse at 0.2 mg/kg, po measured for 24 hrs to EC90 for antiviral activity against HBV infected in human HepG2.2.15 cells assessed as reduction in HBsAg level; assay type: ADME, organism-based; conditions: in vivo
# [11] = Selectivity ratio of drug concentration in liver in CD-1 mouse at 10 mg/kg, po measured for 24 hrs to EC90 for antiviral activity against HBV infected in human HepG2.2.15 cells assessed as reduction in HBsAg level; assay type: ADME, organism-based; conditions: in vivo
# [12] = Selectivity ratio of drug concentration in liver in CD-1 mouse at 0.2 mg/kg, po measured for 12 hrs to EC90 for antiviral activity against HBV infected in human HepG2.2.15 cells assessed as reduction in HBsAg level; assay type: ADME, organism-based; conditions: in vivo
# [13] = Metabolic stability in CD-1 mouse liver microsomes assessed as clearance at 0.3 uM preincubated for 5 mins followed by NADPH addition measured upto 60 mins by LC-MS/MS analysis; assay type: ADME, Microsome; conditions: time < 65 min, read-out: CLH
# [14] = Selectivity ratio of drug concentration in liver in CD-1 mouse at 10 mg/kg, po measured for 12 hrs to EC90 for antiviral activity against HBV infected in human HepG2.2.15 cells assessed as reduction in HBsAg level; assay type: ADME, organism-based; conditions: in vivo
# [15] = AUC (0 to 24 hrs) in CD-1 mouse at 0.2 mg/kg, po measured for 24 hrs by LC-MS/MS analysis; assay type: ADME, organism-based; conditions: in vivo
# [16] = Metabolic stability in human liver microsomes assessed as clearance at 0.3 uM preincubated for 5 mins followed by NADPH addition measured upto 60 mins by LC-MS/MS analysis; assay type: ADME, Microsome; conditions: time < 65 min, read-out: CLH
# [17] = Oral bioavailability in CD-1 mouse at 10 mg/kg measured for 24 hrs by LC-MS/MS analysis; assay type: ADME, organism-based; conditions: in vivo
# [18] = AUC (0 to 24 hrs) in Sprague-Dawley rat at 5 mg/kg, po measured for 24 hrs by LC-MS/MS analysis; assay type: ADME, organism-based; conditions: in vivo
# Hepatitis B virus [19] = assay: Antiviral activity against HBV genotype D in immuno-competent C57BL/6 mouse model of chronic HBV assessed as log10 reduction in HBsAg production at 10 mg/kg, po qd for 7 days measured 24 hrs post-last dose by EIA relative to control; assay type: functional; conditions: time 8 day
# [20] = Ratio of total drug concentration in liver to plasma in Sprague-Dawley rat at 5 mg/kg, po measured for 24 hrs by LC-MS/MS analysis; assay type: ADME, organism-based; conditions: other tissue
# Hepatitis B virus [21] = assay: Antiviral activity against HBV genotype D in immuno-competent C57BL/6 mouse model of chronic HBV assessed as log10 reduction in HBsAg production at 3 mg/kg, po qd for 7 days measured 24 hrs post-last dose by EIA relative to control; assay type: functional; conditions: time 8 day
# [22] = Oral bioavailability in Sprague-Dawley rat at 5 mg/kg measured for 24 hrs by LC-MS/MS analysis; assay type: ADME, organism-based; conditions: in vivo
# [23] = Selectivity ratio of drug concentration in liver in Sprague-Dawley rat at 5 mg/kg, po measured for 24 hrs to EC90 for antiviral activity against HBV infected in human HepG2.2.15 cells assessed as reduction in HBsAg level; assay type: ADME, organism-based; conditions: in vivo
# Hepatitis B virus [24] = assay: Antiviral activity against HBV genotype D in immuno-competent C57BL/6 mouse model of chronic HBV assessed as log10 reduction in HBsAg production at 10 mg/kg, po qd for 7 days measured 24 hrs post-last dose by EIA (reference value: 0.98); assay type: functional; conditions: time 8 day
# Hepatitis B virus [25] = assay: Antiviral activity against HBV genotype D in immuno-competent C57BL/6 mouse model of chronic HBV assessed as log10 reduction in HBsAg production at 3 mg/kg, po qd for 7 days measured 24 hrs post-last dose by EIA (reference value: 0.67); assay type: functional; conditions: time 8 day
EC50 (Hepatitis B virus [1]),EC90 (Hepatitis B virus [1]),Kp at 12 h [4],AUC(0-t) at 24 h [5],microsomal CLint at 0.3 µM [7],microsomal CLint at 0.3 µM [13],microsomal CLint at 0.3 µM [16],Kp at 24 h [6],Structure (SMILES),CC50 [2],Ratio [14],Ratio [11],other results
0.3 nM,2.4 nM,,,,,,,CC(C)(C)C1Cc2c(cc(OC(F)F)c3ncccc23)-c2[nH]c(=O)c(C(=O)O)c(O)c21 (centres undefined),48000 nM,,,Stability [3]: Unstable
0.24 nM,2.5 nM,43,786 ng·h/mL,2 µL/min/mg,1 µL/min/mg,7 µL/min/mg,,Cn1c2c(cc(C(=O)O)c1=O)[C@H](C(C)(C)C)Cc1c-2nc2c(C(F)(F)F)cc(Cl)cn12,15000 nM,2002,,Ratio [6]: Bld; Ratio [8]: Bld; Kp at 12 h [9]: 24; Ratio ([10]; BLD = below limit of detection): Bld; Ratio ([11]; BLD = below limit of detection): Bld; Ratio [12]: 22; AUC(0-t) at 24 h [15]: 17 ng·h/mL
4.9 nM,10 nM,,,,,,,CC(C)(C)C1Cc2c(nc3c(C(F)(F)F)cc(F)cn23)-c2[nH]c(=O)c(C(=O)O)cc21 (centres undefined),> 50000 nM,,,
3.1 nM,46 nM,72,2150 ng·h/mL,8 µL/min/mg,15 µL/min/mg,2 µL/min/mg,92,CC(C)(C)[C@@H]1Cc2c(nc3c(C(F)(F)F)cccn23)-c2[nH]c(=O)c(C(=O)O)cc21,> 50000 nM,438,3,
3.7 nM,34 nM,133,853 ng·h/mL,33 µL/min/mg,45 µL/min/mg,2 µL/min/mg,,CC(C)(C)[C@@H]1Cc2c(nc3c(OC(F)F)cccn23)-c2[nH]c(=O)c(C(=O)O)cc21,> 50000 nM,108,1,Ratio [6]: Bld
2.3 nM,7 nM,,,,,,,CC(C)(C)C1Cc2c(nc3c(C(F)(F)F)cc(Cl)cn23)-c2c1cc(C(=O)O)c(=O)n2C1CC1 (centres undefined),16000 nM,,,
2 nM,34 nM,,,,3 µL/min/mg,3 µL/min/mg,,CC(C)(C)[C@@H]1Cc2c(nc3c(C(F)(F)F)cc(Cl)cn23)-c2[nH]c(=O)c(C(=O)O)cc21,> 50000 nM,,,
12 nM,121 nM,11,,,16 µL/min/mg,1 µL/min/mg,,COc1cccn2c3c(nc12)-c1[nH]c(=O)c(C(=O)O)cc1[C@H](C(C)(C)C)C3,> 50000 nM,3,,
1.1 nM,13 nM,,4940 ng·h/mL,,12 µL/min/mg,57 µL/min/mg,1.3,COCCCOc1cc2c(nc1OC)-c1[nH]c(=O)c(C(=O)O)c(O)c1[C@H](C(C)(C)C)C2,26000 nM,,4.6,bioavailability [17]: 93%; Stability [3]: Unstable
1.5 nM,14 nM,,989 ng·h/mL,279 µL/min/mg,64 µL/min/mg,6 µL/min/mg,308,CC(C)(C)[C@@H]1Cc2c(nc3c(OC(F)F)cccn23)-c2[nH]c(=O)c(C(=O)O)c(O)c21,36000 nM,,92,bioavailability [17]: 27%; Stability [3]: Unstable; AUC(0-t) at 24 h [18]: 209 ng·h/mL; log(activity) (Hepatitis B virus [19]): 0.52; Ratio [20]: 4397; log(activity) (Hepatitis B virus [21]): 0.32; bioavailability [22]: 16%; Ratio [23]: 1008
12 nM,135 nM,,,,11 µL/min/mg,2 µL/min/mg,,CC(C)(C)[C@@H]1Cc2c(nc3c(C(F)F)cccn23)-c2[nH]c(=O)c(C(=O)O)cc21,> 50000 nM,,,
7.9 nM,7 nM,,,,,,,CC(C)(C)[C@@H]1Cc2c(nc3c(OC(F)F)cc(OC(F)F)cn23)-c2[nH]c(=O)c(C(=O)O)cc21,> 50000 nM,,,
0.8 nM,11 nM,,,,,,,Cc1cc(C(F)(F)F)c2nc3c(n2c1)CC(C(C)(C)C)c1cc(C(=O)O)c(=O)[nH]c1-3 (centres undefined),47000 nM,,,
3.5 nM,49 nM,24,2690 ng·h/mL,5 µL/min/mg,3 µL/min/mg,4 µL/min/mg,19,COc1ccn2c3c(nc2c1OC(F)F)-c1[nH]c(=O)c(C(=O)O)cc1[C@H](C(C)(C)C)C3,> 50000 nM,69,1,Ratio [8]: Bld; Kp at 12 h [9]: 22; Ratio ([10]; BLD = below limit of detection): Bld; Ratio [12]: 3; AUC(0-t) at 24 h [15]: 44 ng·h/mL
5.6 nM,51 nM,,5100 ng·h/mL,,1 µL/min/mg,,5,COc1ccn2c3c(nc2c1OC)-c1[nH]c(=O)c(C(=O)O)cc1[C@H](C(C)(C)C)C3,> 50000 nM,,0.3,
3.7 nM,54 nM,105,2740 ng·h/mL,4 µL/min/mg,3 µL/min/mg,1 µL/min/mg,194,CC(C)(C)[C@@H]1Cc2c(nc3c(OC(F)F)cc(F)cn23)-c2[nH]c(=O)c(C(=O)O)cc21,> 50000 nM,1080,203,"Kp at 24 h ([8]; CD-1, mouse, liver and plasma): 101; Kp at 12 h [9]: 176; log(activity) (Hepatitis B virus [24]): 0.37; log(activity) (Hepatitis B virus [25]): 0.16; Ratio [10]: 7; Ratio [12]: 25; AUC(0-t) at 24 h [15]: 67 ng·h/mL"
